Test results from patent US20250129135A1, “Multi-Agonist and Use Thereof” (priority 2021, published 2025).
Starred links: 1 amine or outer side, 2 acyl side, 3 side chain; linkers in the order of their positions; H or OH if unused. Non-standard residues stand in square brackets, D forms with d. Residues, ends and D or L forms follow the SMILES beside them. Groups on a side chain read outwards from the residue. *: point of attachment. C20 diacid = O=C(O)CCCCCCCCCCCCCCCCCCC(=O)*; γGlu = O=C(O)[C@H](CCC(=O)[*:2])N[*:1]; αMeF = C[C@](N)(Cc1ccccc1)C(=O)O; αMeL = CC(C)C[C@](C)(N)C(=O)O; AEEA = NCCOCCOCC(=O)O; Ac3c = NC1(C(=O)O)CC1; Aib = CC(C)(N)C(=O)O

Legend:
3T3-L1 adipocytes = conditions: for Rel. A (Relative Activity) on 3T3-L1 adipocyte: relative to GIP
Description: Mouse 3T3-L1 precursor adipocytes can be induced to differentiate into mature adipocytes. […] After the cells became full and contacted with each other, DMEM differentiation medium containing 20% FBS, 0.5 mM IBMX, 0.4 ug/mL dexamethasone, and 5 ug/mL insulin was used to induce differentiation of 3T3-L1 adipocyte. After 5 days of induction and cultivation, DMEM medium containing […], 4 ug/ml insulin, and 10 uM rosiglitazone was used to continue induction and cultivation for 3 days. Then, DMEM medium containing 10% FBS was used to continue cultivation for 2-3 days to induce mature 3T3-L1 adipocytes.
The cAMP level produced by the compound on 3T3-L1 adipocytes was determined in this experiment. The tested compound solution was diluted step by step according to a concentration gradient of 3 times, to obtain a total of 10 series of concentration solutions. The solutions were added to induced mature 3T3-L1 adipocytes and incubated at room temperature for 60 minutes. 10 μL detection reagent in the kit was added to each well after drug incubation, and incubated at room temperature for another 60 minutes. […] GraphPad Prism 5 plotting software was used to create compound concentration-effect curves and calculation was performed.

Human GIP R = target: T1, Human GIP R (Homo sapiens, UniProt P48546); assay: cAMP (HTRF) activity in CHO cells stably overexpressing GIP receptor; type: cell-based; conditions: for Human GIP R Rel. A (Relative Activity): EC50 of human GIP / EC50 of compound; for EC50: stable transfected cell cAMP activity, at least 3 independent tests
T1 construct: expressed in transfected cells; host or cells: CHO
T1 sequence (P48546 22-466): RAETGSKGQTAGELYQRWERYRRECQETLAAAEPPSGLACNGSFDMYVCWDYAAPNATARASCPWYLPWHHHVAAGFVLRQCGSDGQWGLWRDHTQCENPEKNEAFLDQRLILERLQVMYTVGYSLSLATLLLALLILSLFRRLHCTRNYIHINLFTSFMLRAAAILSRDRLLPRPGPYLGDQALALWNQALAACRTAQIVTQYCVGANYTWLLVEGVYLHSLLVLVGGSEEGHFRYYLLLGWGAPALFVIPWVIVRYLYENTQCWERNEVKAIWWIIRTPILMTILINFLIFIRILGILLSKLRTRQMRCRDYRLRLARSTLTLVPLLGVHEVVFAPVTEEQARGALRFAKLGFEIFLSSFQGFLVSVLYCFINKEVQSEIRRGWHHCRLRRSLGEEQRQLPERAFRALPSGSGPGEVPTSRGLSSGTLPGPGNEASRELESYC
Description: (§1) By measuring the cAMP signal response levels of the aforementioned cells, the agonistic activity of individual compound towards the corresponding receptor was determined. The intracellular cAMP content was measured using reagent kit available from Cisbio Corp. based on HTRF (homogeneous time-resolved fluorescence) technology.
(§2) The cell fluid was transferred to 10 ml of HBSS for resuspension, and centrifuged at 1000 rpm for 5 minutes at room temperature.
(§3) 10 μL cell suspension was added to each well in the 384 well plate. […] Using the ECHO liquid transfer system, 100 nL of the prepared compound solution was added to the corresponding cell suspensions in the 384 well plate, rotated and shaken at 1000 rpm for 1 minute to mix evenly, and then incubated at room temperature for 60 minutes. 10 μL of detection reagent was added to each well after drug incubation was completed, and incubation was performed in the kit at room temperature for 60 minutes. […] GraphPad Prism 5 plotting software was used to create compound concentration response curves and EC50 (nM) values was calculated.

[1] = tested on: human primary liver cells; type: cell-based; conditions: for Rel. A (Relative Activity) on human primary liver cells: relative to GCG
Description: The cAMP levels produced by compounds on human primary liver cells were determined in this experiment. Human primary liver cells were purchased from Lonza (cell product number HUCPG).
Frozen human primary liver cells were placed in a 37° C. constant temperature water bath for rapid thawing and recovery. The cell solution was transferred to 10 ml of HBSS for resuspension, and centrifuged at 1000 rpm for 5 minutes at room temperature.
10 μL cell suspension was added to each well in the 384 well plate. […] Using the ECHO liquid transfer system, 100 nL of the prepared compound solution was added to the corresponding cell suspensions in the 384 well plate, rotated and shaken at 1000 rpm for 1 minute to mix evenly, and then incubated at room temperature for 60 minutes. 10 μL of detection reagent was added to each well after drug incubation was completed, and incubation was performed for 60 minutes.

RIN-m5F cells = type: cell-based, rat; conditions: for Rel. A (Relative Activity) on RIN-m5F: relative to GLP-1(7-37)
Description: This experiment measured the cAMP level produced by the compound on RIN-mF cells.
Frozen […] cells were placed in a 37° C. constant temperature water bath for rapid thawing and recovery. The cell solution was transferred to 10 ml of HBSS for resuspension, and centrifuged at 1000 rpm for 5 minutes at room temperature.
10 μL cell suspension was added to each well in the 384 well plate. […] Using the ECHO liquid transfer system, 100 nL of the prepared compound solution was added to the corresponding cell suspensions in the 384 well plate, rotated and shaken at 1000 rpm for 1 minute to mix evenly, and then incubated at room temperature for 60 minutes. 10 μL of detection reagent was added to each wells after drug incubation was completed, and incubation was performed for 60 minutes.

Human GCG R = target: T2, Human GCG R (Homo sapiens, UniProt P47871); assay: cAMP (HTRF) activity in HEK-293 cells stably overexpressing human GCG receptor; type: cell-based; conditions: EC50 of human GCG / EC50 of compound
T2 construct: expressed in transfected cells; host or cells: HEK-293
Description: as §1, §2, §3

Human GLP-1R = Human GLP-1R (Homo sapiens, UniProt P43220); assay: cAMP (HTRF) activity in HEK-293 cells stably overexpressing human GLP-1 receptor; type: cell-based; design: expressed in transfected cells; host or cells: HEK-293; conditions: for Human GLP-1R Rel. A (Relative Activity): EC50 of human GLP-1 (7-37) / EC50 of compound; for EC50: stable transfected cell cAMP activity, at least 3 independent tests
Description: as §1, §2, §3

Human GLP-1R, sequence (P43220 24-463): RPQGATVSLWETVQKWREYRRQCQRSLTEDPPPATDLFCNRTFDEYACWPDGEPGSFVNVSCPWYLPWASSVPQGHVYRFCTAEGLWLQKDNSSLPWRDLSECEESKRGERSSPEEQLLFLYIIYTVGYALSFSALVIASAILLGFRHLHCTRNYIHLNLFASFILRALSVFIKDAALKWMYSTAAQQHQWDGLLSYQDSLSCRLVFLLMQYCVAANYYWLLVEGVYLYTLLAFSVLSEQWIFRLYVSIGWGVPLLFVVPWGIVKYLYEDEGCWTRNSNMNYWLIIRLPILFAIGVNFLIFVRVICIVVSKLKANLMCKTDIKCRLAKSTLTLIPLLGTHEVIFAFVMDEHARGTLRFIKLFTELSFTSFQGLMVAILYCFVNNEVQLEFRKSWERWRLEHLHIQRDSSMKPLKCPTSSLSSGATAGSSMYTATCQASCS
T2 sequence (P47871 26-477): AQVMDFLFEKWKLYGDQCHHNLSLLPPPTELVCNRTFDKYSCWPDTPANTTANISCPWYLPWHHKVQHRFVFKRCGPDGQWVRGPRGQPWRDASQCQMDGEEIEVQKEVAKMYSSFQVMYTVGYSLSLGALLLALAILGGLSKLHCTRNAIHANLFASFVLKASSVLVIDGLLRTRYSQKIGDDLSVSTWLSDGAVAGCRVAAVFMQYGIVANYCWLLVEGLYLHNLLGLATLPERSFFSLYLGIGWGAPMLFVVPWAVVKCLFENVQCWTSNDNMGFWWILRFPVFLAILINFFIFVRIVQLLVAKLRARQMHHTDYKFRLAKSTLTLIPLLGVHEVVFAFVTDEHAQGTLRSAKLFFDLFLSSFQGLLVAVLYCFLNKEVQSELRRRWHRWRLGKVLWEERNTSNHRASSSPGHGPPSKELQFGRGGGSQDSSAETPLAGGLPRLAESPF

SMILES | EC50 (3T3-L1 adipocytes) | Rel. A (Relative Activity) on 3T3-L1 adipocyte (3T3-L1 adipocytes) | Human GIP R Rel. A (Relative Activity) (Human GIP R) | EC50 (Human GIP R) | EC50 [1] | Rel. A (Relative Activity) on human primary liver cells [1] | EC50 (RIN-m5F cells) | Rel. A (Relative Activity) on RIN-m5F (RIN-m5F cells) | Human GCG R Rel. A (Relative Activity) (Human GCG R) | Human GLP-1R Rel. A (Relative Activity) (Human GLP-1R) | EC50 (Human GLP-1R)
CC[C@H](C)[C@H](NC(=O)[C@H](Cc1ccccc1)NC(=O)[C@H](C)NC(=O)C(C)(C)NC(=O)[C@H](CCC(N)=O)NC(=O)[C@H](C)NC(=O)[C@H](CCCCNC(=O)COCCOCCNC(=O)COCCOCCNC(=O)CC[C@H](NC(=O)CCCCCCCCCCCCCCCCCCC(=O)O)C(=O)O)NC(=O)[C@H](CCCCN)NC(=O)[C@H](CC(=O)O)NC(=O)[C@H](CC(C)C)NC(=O)[C@](C)(CC(C)C)NC(=O)[C@@H](NC(=O)[C@H](CO)NC(=O)[C@H](Cc1ccc(O)cc1)NC(=O)[C@H](CC(=O)O)NC(=O)[C@H](CO)NC(=O)[C@@H](NC(=O)[C@](C)(Cc1ccccc1)NC(=O)[C@@H](NC(=O)CNC(=O)[C@H](CCC(N)=O)NC(=O)C(C)(C)NC(=O)[C@@H](N)Cc1ccc(O)cc1)[C@@H](C)O)[C@@H](C)O)[C@@H](C)CC)C(=O)N[C@@H](CCC(=O)O)C(=O)N[C@@H](Cc1ccc(O)cc1)C(=O)N[C@@H](CC(C)C)C(=O)N[C@@H](CC(C)C)C(=O)N[C@@H](CCC(=O)O)C(=O)N[C@H](C(=O)NCC(=O)N1CCC[C@H]1C(=O)N[C@@H](CO)C(=O)N[C@@H](CO)C(=O)NCC(=O)N[C@@H](CCC(N)=O)C(=O)N1CCC[C@H]1C(=O)N1CCC[C@H]1C(=O)NC1(C(=O)N[C@@H](CO)C(N)=O)CC1)[C@@H](C)O [Compound 35] (H-Y[Aib]QGT[αMeF]TSDYSI[αMeL]LDKK([AEEA-AEEA-γGlu-C20 diacid])AQ[Aib]AFIEYLLETGPSSGQPP[Ac3c]S-NH2; N-terminus assumed) | 6.01 nM | 63.28% | 2262.50% | 0.008 nM | 1.96 nM | 198.52% | 0.346 nM | 298.27% | 65.52% | 200.00% | 0.022 nM
CC[C@H](C)[C@H](NC(=O)[C@H](Cc1ccccc1)NC(=O)[C@H](C)NC(=O)C(C)(C)NC(=O)[C@H](CCC(N)=O)NC(=O)[C@H](C)NC(=O)[C@H](CCCCNC(=O)COCCOCCNC(=O)COCCOCCNC(=O)CC[C@H](NC(=O)CCCCCCCCCCCCCCCCCCC(=O)O)C(=O)O)NC(=O)[C@H](CCCCN)NC(=O)[C@H](CC(=O)O)NC(=O)[C@H](CC(C)C)NC(=O)[C@H](Cc1ccccc1)NC(=O)[C@@H](NC(=O)[C@H](CO)NC(=O)[C@H](Cc1ccc(O)cc1)NC(=O)[C@H](CC(=O)O)NC(=O)[C@H](CO)NC(=O)[C@@H](NC(=O)[C@](C)(Cc1ccccc1)NC(=O)[C@@H](NC(=O)CNC(=O)[C@H](CCC(N)=O)NC(=O)C(C)(C)NC(=O)[C@@H](N)Cc1ccc(O)cc1)[C@@H](C)O)[C@@H](C)O)[C@@H](C)CC)C(=O)N[C@@H](CCC(=O)O)C(=O)N[C@@H](Cc1ccc(O)cc1)C(=O)N[C@@H](CC(C)C)C(=O)N[C@@H](CC(C)C)C(=O)N[C@@H](CCC(=O)O)C(=O)N[C@@H](CO)C(=O)NC(C)(C)C(=O)N1CCC[C@H]1C(=O)N[C@@H](CO)C(=O)N[C@@H](CO)C(=O)NCC(=O)N[C@@H](C)C(=O)N1CCC[C@H]1C(=O)N1CCC[C@H]1C(=O)NC1(C(=O)N[C@@H](CO)C(N)=O)CC1 [Compound 29] (H-Y[Aib]QGT[αMeF]TSDYSIFLDKK([AEEA-AEEA-γGlu-C20 diacid])AQ[Aib]AFIEYLLES[Aib]PSSGAPP[Ac3c]S-NH2; N-terminus assumed) | 20.7 nM | 18.41% | 58.58% |  | 2.93 nM | 132.89% | 0.633 nM | 163.03% | 82.61% | 275.00% | 0.016 nM
CC[C@H](C)[C@H](NC(=O)[C@H](Cc1ccccc1)NC(=O)[C@H](C)NC(=O)C(C)(C)NC(=O)[C@H](CCC(N)=O)NC(=O)[C@H](C)NC(=O)[C@H](CCCCNC(=O)COCCOCCNC(=O)COCCOCCNC(=O)CC[C@H](NC(=O)CCCCCCCCCCCCCCCCCCC(=O)O)C(=O)O)NC(=O)[C@H](CCCCN)NC(=O)[C@H](CC(=O)O)NC(=O)[C@H](CC(C)C)NC(=O)[C@](C)(CC(C)C)NC(=O)[C@@H](NC(=O)[C@H](CO)NC(=O)[C@H](Cc1ccc(O)cc1)NC(=O)[C@H](CC(=O)O)NC(=O)[C@H](CO)NC(=O)[C@@H](NC(=O)[C@](C)(Cc1ccccc1)NC(=O)[C@@H](NC(=O)CNC(=O)[C@H](CCC(N)=O)NC(=O)C(C)(C)NC(=O)[C@@H](N)Cc1ccc(O)cc1)[C@@H](C)O)[C@@H](C)O)[C@@H](C)CC)C(=O)N[C@@H](CCC(=O)O)C(=O)N[C@@H](Cc1ccccc1)C(=O)N[C@@H](CC(C)C)C(=O)N[C@@H](CC(C)C)C(=O)N[C@@H](CCC(=O)O)C(=O)N[C@@H](CO)C(=O)N[C@@H](Cc1c[nH]cn1)C(=O)N1CCC[C@H]1C(=O)N[C@@H](CO)C(=O)N[C@@H](CO)C(=O)NC(C)(C)C(=O)N[C@@H](Cc1c[nH]cn1)C(=O)N1CCC[C@H]1C(=O)N1CCC[C@H]1C(=O)NC1(C(=O)N[C@@H](CO)C(N)=O)CC1 [Compound 33] (H-Y[Aib]QGT[αMeF]TSDYSI[αMeL]LDKK([AEEA-AEEA-γGlu-C20 diacid])AQ[Aib]AFIEFLLESHPSS[Aib]HPP[Ac3c]S-NH2; N-terminus assumed) | 3.3 nM | 115.21% | 2262.50% | 0.008 nM | 4.19 nM | 92.93% | 0.717 nM | 143.93% | 36.77% | 231.58% | 
